pKi: −log10 of the molar value. Where a name gives a salt, the structure may show the parent alone.
What was measured:
D1 dopamine receptors = D1 dopamine receptors (Rattus norvegicus, UniProt P18901); test: Inhibition of tritiated SCH 23390 binding to D1 dopamine receptors, rat striatal samples; design: species or system rat (male Charles River CD rats); conditions: for pKi: rat striatum, tritiated SCH 23390, pH 7.4, 37° C., 30 minutes; for Ki for D2 / Ki for D1: ratio between the D2 and D1 Ki values, to two significant figures
Chain of D1 dopamine receptors (P18901 whole entry): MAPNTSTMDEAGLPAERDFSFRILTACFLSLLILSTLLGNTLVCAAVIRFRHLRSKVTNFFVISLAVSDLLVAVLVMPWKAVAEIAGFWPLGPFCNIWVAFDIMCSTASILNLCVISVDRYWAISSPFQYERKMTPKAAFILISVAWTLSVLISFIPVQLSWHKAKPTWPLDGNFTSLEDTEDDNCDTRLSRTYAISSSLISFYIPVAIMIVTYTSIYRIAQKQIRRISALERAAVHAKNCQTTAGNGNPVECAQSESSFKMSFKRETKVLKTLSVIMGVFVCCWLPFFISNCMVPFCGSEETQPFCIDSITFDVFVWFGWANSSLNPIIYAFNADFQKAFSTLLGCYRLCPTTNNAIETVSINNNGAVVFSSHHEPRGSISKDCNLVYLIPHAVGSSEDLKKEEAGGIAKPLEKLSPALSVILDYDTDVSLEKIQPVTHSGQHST
Method: (§1) Striatal samples from the brains of male Charles River CD rats weighing between 140-250 g were homogenised in ice-cold 50 mM Tris-HCl buffer (pH 7.4 when measured at 25° C. for D1 binding assays and pH 7.7 when measured at 25° C. for D2 binding assays) and centrifuged for 10 minutes (at 21,000 g when used for D1 binding assay and 40,000 g when used for D2 binding assays). The pellet was resuspended in the same buffer, again centrifuged and the final pellet stored at -80° C. Before each test the pellet was resuspended in 50 mM Tris-HCl buffer containing 120 mM NaCl, 5 mM KCl, 2 mM CaCl2 and 1 mM MgCl2 at pH 7.4 for the D1 binding assays and at pH 7.7 with the addition of 6 mM ascorbic acid for the D2 binding assays. Aliquots of this suspension were then added to tubes containing the ligand and either the compound under test or buffer. For the D1 binding assays the ligand was tritiated SCH 23390 and the mixture was incubated at 37° C. for 30 minutes before the incubation was terminated by rapid filtration. For the D2 binding assays the ligand was tritiated (S)-sulpiride and the mixture was incubated at 4° C. for 40 minutes before the incubation was terminated by rapid filtration. Non-specific binding was determined experimentally by the addition of saturating concentrations of chloropromazine or spiroperidol for D1 and D2 receptors respectively.
(§2) The filters were washed with ice-cold Tris-HCl buffer and dried. The filters were punched out into vials containing scintillation fluid and were left for about 20 hours before being counted by scintillation spectrophotometry. Competition binding curves were produced over a range of concentrations of the compound under test and the inhibition coefficient Ki was derived from the data by use of the non-linear curve fitting computer programe EBDA (Biosoft).

D2 dopamine receptors = D2 dopamine receptors (Rattus norvegicus, UniProt P61169); test: Inhibition of tritiated (S)-sulpiride binding to D2 dopamine receptors, rat striatal samples; design: species or system rat (male Charles River CD rats); conditions: rat striatum, pH 7.7, 4° C., 40 minutes
Chain of D2 dopamine receptors (P61169 whole entry): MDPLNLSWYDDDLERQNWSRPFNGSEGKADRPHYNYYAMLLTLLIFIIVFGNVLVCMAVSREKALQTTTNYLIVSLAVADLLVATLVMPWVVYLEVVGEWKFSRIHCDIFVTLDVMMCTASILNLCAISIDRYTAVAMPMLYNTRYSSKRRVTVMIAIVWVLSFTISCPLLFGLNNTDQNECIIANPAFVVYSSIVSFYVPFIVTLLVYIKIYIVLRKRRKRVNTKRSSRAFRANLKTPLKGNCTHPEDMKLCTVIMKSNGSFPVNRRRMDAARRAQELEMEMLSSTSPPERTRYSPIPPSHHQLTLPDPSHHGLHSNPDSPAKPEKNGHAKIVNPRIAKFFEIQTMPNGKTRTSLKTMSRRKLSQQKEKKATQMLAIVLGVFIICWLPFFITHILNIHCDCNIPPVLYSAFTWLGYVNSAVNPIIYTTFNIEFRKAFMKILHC
Method: as §1, §2

Compound	pKi (D1 dopamine receptors)	Ki for D2 / Ki for D1 (D1 dopamine receptors)	pKi (D2 dopamine receptors)
Br.Cc1cc2c(cc1O)C(C1(c3ccsc3)CC1)N(C)CC2 (racemic) [Example 8, (±)-7-hydroxy-2,6-dimethyl-1-[1-(3-thienyl)cyclopropyl]-1,2,3,4-tetrahydroisoquinoline hydrobromide]	8.23	220	5.89
Cc1cc2c(cc1O)C(C1(c3ccsc3)CC1)N(C)CC2.O=C(O)C(=O)O (single isomer, unassigned; (-)) [Example 6, (-)-7-hydroxy-2,6-dimethyl-1-[1-(3-thienyl)cyclopropyl]-1,2,3,4-tetrahydroisoquinoline oxalate]	8.68	2300	5.31
Cc1cc2c(cc1O)C(C1(c3ccsc3)CC1)N(C)CC2 (single isomer, unassigned; (-)) [Example 7, (-)-7-hydroxy-2,6-dimethyl-1-[1-(3-thienyl)cyclopropyl]-1,2,3,4-tetrahydroisoquinoline hydrochloride 0.8 hydrate]	8.38	2000	5.07
Br.CC(C)CC1(C2c3cc(O)ccc3CCN2C)CCC1 (stereo not drawn) [Example 1, 7-hydroxy-2-methyl-1-[1-(2-methylpropyl)cyclobutyl]-1,2,3,4-tetrahydroisoquinoline hydrobromide]	6.43	68	4.60
Cc1cc2c(cc1O)C(C1(CC3CCCC3)CC1)N(C)CC2 (stereo not drawn) [Example 2, 1-[1-(cyclopentylmethyl)cyclopropyl]-7-hydroxy-2,6-dimethyl-1,2,3,4-tetrahydroisoquinoline]	8.10	290	5.64
Cc1cc2c(cc1O)C(C1(C3C=CCCC3)CCC1)N(C)CC2.O=C(O)C(=O)O (stereo not drawn) [Example 3, 1-[1-(cyclohex-1-en-3-yl)cyclobutyl]-7-hydroxy-2,6-dimethyl-1,2,3,4-tetrahydroisoquinoline oxalate]	7.11	120	5.02
Cc1cc2c(cc1O)C(C1(C3CCCc4ccccc43)CC1)N(C)CC2 (stereo not drawn) [Example 4, 7-hydroxy-2,6-dimethyl-1-[1-(1,2,3,4-tetrahydronaphth-1-yl)cyclopropyl]-1,2,3,4-tetrahydroisoquinoline 1.05 hydrochloride 0.7 hydrate]	8.17	28	6.72
Br.Cc1cc2c(cc1O)C(C1(c3cccs3)CC1)N(C)CC2 (stereo not drawn) [Example 5, 7-hydroxy-2,6-dimethyl-1-[1-(2-thienyl)cyclopropyl]-1,2,3,4-tetrahydroisoquinoline hydrobromide]	7.49	94	5.52
Cc1cc2c(cc1O)C(C1(c3ccco3)CC1)N(C)CC2.O=C(O)/C=C\C(=O)O (stereo not drawn) [Example 9, 1-[1-(2-furyl)cyclopropyl]-7-hydroxy-2,6-dimethyl-1,2,3,4-tetrahydroisoquinoline maleate]	7.40	220	5.05
CN1CCc2ccc(O)cc2C1C1(c2ccccn2)CCC1.O=C(O)C(=O)O (stereo not drawn) [Example 10, 7-hydroxy-2-methyl-1-[1-(2-pyridyl)cyclobutyl]-1,2,3,4-tetrahydroisoquinoline oxalate]	6.80	44	5.15
Cc1cc2c(cc1O)C(C1(c3ccccn3)CC1)N(C)CC2 (stereo not drawn) [Example 11, 7-hydroxy-2,6-dimethyl-1-[1-(2-pyridyl)cyclopropyl]-1,2,3,4-tetrahydroisoquinoline]	6.85	79	5.96

Reference: patent US5807868A, “Isoquinoline derivatives as therapeutic agents” (Knoll Aktiengesellschaft, priority 1993, dated 1998)
